# Results reported in article PMC8401404 (Molecules, 2021).
# Legend:
# A549 [1] = experiment: MTS cytotoxicity assay, 2D cell culture; conditions: Homo sapiens, A549, 72 h, read-out: Cytotoxicity Assay IC50 ± SD; A549 2D, 72 h, MTS; n = 2
# Procedure: (§1) MTS assay gives us information about the number of living cells, in this case, metabolically active cells, whereas the BrdU proliferation assay gives a measure of the cell population in active division phase. Both assays were performed in 2D and 3D assay formats. For the 2D cell assay format, we used classic two-dimensional in vitro assays and as a 3D assay we used a hanging drop proliferation cell assay as previously described. We explored the activity of compounds on three human lung cancer cell lines, A549, HCC827 and NCI-H358. The compound activity was also tested on human lung fibroblast cell line MRC-5. A two-dimensional in vitro viability assay was performed on the MRC-5 cell line to see if tested compounds are cytotoxic on normal cell lines in low concentrations. […] 7.1.
# (§2) Test compounds were synthesized by a research group at the Department of Organic Chemistry, Faculty of Chemical Engineering and Technology, University of Zagreb. […] Compounds were diluted 1:3. We transferred 500 nL (for 2D cell culture) or 400 nL (for 3D cell culture) of the compound from a mother plate to test plate by using Mosquito (TTP labtech). DMSO percentage in test concentrations was 0.5–1.0%. Starting concentration of the test compounds and standard compound doxorubicin was 50 µM (2D cell culture) or 100 µM (3D cell culture).
# (§3) Cells were grown in 96-well cell star polystyrene plates. We seeded 10,000 cells/well in wells 4 h prior to the treatment with different compounds concentrations and incubated for 72 h. A cell viability assay was performed according to the manufacturer’s instructions, using CellTiter 96 aqueous solution, MTS kit (Promega, Madison, WI, USA). After 0.5–2 h of cell incubation with MTS in 2D cell culture, the plates were read using PE EnVision absorbance at 490 nm.
# (§4) Calculation of IC50 data, curves and QC analysis was performed by using Excel tools and GraphPadPrism software (La Jolla, CA, USA), v. […] QC criteria parameters (Z’, S:B, R2, HillSlope) were checked for every IC50 curve.
# HCC827 [2] = experiment: MTS cytotoxicity assay, 2D cell culture; conditions: Homo sapiens, HCC827, 72 h, read-out: Cytotoxicity Assay IC50 ± SD; HCC827 2D
# Procedure: as §1, §2, §3, §4
# NCI-H358 [3] = experiment: MTS cytotoxicity assay, 2D cell culture; conditions: Homo sapiens, NCI-H358, 72 h, read-out: Cytotoxicity Assay IC50 ± SD; NCI-H358 2D
# Procedure: as §1, §2, §3, §4
# A549 [4] = experiment: Cytotoxicity (viability) assay, 3D hanging drop cell culture; conditions: Homo sapiens, A549, 72 h, read-out: Cytotoxicity Assay IC50 ± SD; A549 3D
# Procedure: as §1, §2
# (§5) Cells were grown in 96-well Perfecta 3D hanging drop plates 5000 cell/well for 4 days until spheres were formed (and checked under the microscope). After sphere formation cells were treated with compounds followed by 72 h incubation. Cell viability assay was performed according to the manufacturer’s instructions, using CellTiter GLO 3D for 3D cell culture (Promega); cell incubation was 5 min on the shaker followed by 25 min incubation in the dark. Plates were read using PE EnVision luminescence.
# as §4
# HCC827 [5] = experiment: as above; conditions: Homo sapiens, HCC827, 72 h, read-out: Cytotoxicity Assay IC50 ± SD; HCC827 3D
# Procedure: as §1, §2, §5, §4
# NCI-H358 [6] = experiment: as above; conditions: Homo sapiens, NCI-H358, 72 h, read-out: Cytotoxicity Assay IC50 ± SD; NCI-H358 3D
# Procedure: as §1, §2, §5, §4
# [7] = MTS cytotoxicity assay, 2D cell culture, normal lung fibroblasts; conditions: human, MRC-5 normal lung fibroblasts, 2D culture
# Procedure: as §1, §2, §3, §4
# A549 [8] = experiment: BrdU proliferation assay, 2D cell culture; type: cell-based, human; conditions: Homo sapiens, A549, 2D, BrdU, n = 2, read-out: Proliferation Assay IC50 ± SD
# Procedure: as §1, §2, §3
# (§6) Proliferation assay was performed using Cell Proliferation ELISA, BrdU (Sigma, St. Louis, MO, USA). Briefly, 48 h hours after compound addition, 10 µM of BrdU was added to each well and incubated for the following 24 h. After incubation, a single cell suspension was made for 3D cell culture in the new 96-well plate. Plates were centrifuged and supernatants were removed from each plate (for 2D and 3D cell culture) followed by 60 min incubation at 60 °C. The rest of the proliferation assay was performed according to the manufacturer’s instructions.
# as §4
# HCC827 [9] = experiment: BrdU proliferation assay, 2D cell culture; type: cell-based, human; conditions: Homo sapiens, HCC827, 2D, BrdU, n = 2, read-out: Proliferation Assay IC50 ± SD
# Procedure: as §1, §2, §3, §6, §4
# NCI-H358 [10] = experiment: BrdU proliferation assay, 2D cell culture; type: cell-based, human; conditions: Homo sapiens, NCI-H358, 2D, n = 2, read-out: Proliferation Assay IC50 ± SD
# Procedure: as §1, §2, §3, §6, §4
# A549 [11] = experiment: BrdU proliferation assay, 3D hanging drop cell culture; type: cell-based, human; conditions: Homo sapiens, A549, 3D, BrdU, n = 2, read-out: Proliferation Assay IC50 ± SD
# Procedure: as §1, §2, §5, §6, §4
# HCC827 [12] = experiment: as above; type: cell-based, human; conditions: Homo sapiens, HCC827, 3D, BrdU, n = 2, read-out: Proliferation Assay IC50 ± SD
# Procedure: as §1, §2, §5, §6, §4
# NCI-H358 [13] = experiment: as above; type: cell-based, human; conditions: Homo sapiens, NCI-H358, 3D, n = 2, read-out: Proliferation Assay IC50 ± SD
# Procedure: as §1, §2, §5, §6, §4
# E. coli ATCC 25922 = experiment: Broth microdilution testing (CLSI); type: cell-based, Escherichia coli; conditions: Escherichia coli, ATCC25922; broth microdilution, 16–24h at 37 °C; read-out: MIC E. coli ATCC 25922
# Procedure: (§7) Broth microdilution testing was performed according to CLSI (Clinical Laboratory Standards Institute) guidelines. MIC (minimal inhibitory concentration) value was defined as the last tested concentration of compound at which there is no visible growth of bacteria. […] Clinical and Laboratory Standards Institute (CLSI) guidelines.
# S. aureus ATCC 29213 = experiment: Broth microdilution testing (CLSI); type: cell-based, Staphylococcus aureus; conditions: Staphylococcus aureus, ATCC29213, broth microdilution, 16–24h at 37 °C; read-out: MIC S. aureus ATCC 29213
# Procedure: as §7
# S. cerevisiae ATCC 7752 = experiment: Broth microdilution testing (CLSI); type: cell-based, Saccharomyces cerevisiae; conditions: Saccharomyces cerevisiae, ATCC7752; broth microdilution, 16–24h at 37 °C; read-out: MIC S. cerevisiae ATCC 7752
# Procedure: as §7
# [14] = test system: poly(dAdT)2 (DNA, polymer) AT; experiment: UV thermal melting at 260 nm; conditions: Na+ (sodium cacodylate, I = 0.05 M), pH 7.0, r = [compound]/[polynucleotide phosphate] = 0.3, error ±0.5, per base
# [15] = test system: poly dA-poly dT (DNA, polymer) A/T; experiment: UV thermal melting at 260 nm; conditions: Na+ (sodium cacodylate, I = 0.05 M), pH 7.0, r = [compound]/[polynucleotide phosphate] = 0.3, error ±0.5, per base
# ctDNA = experiment: Thermal melting experiments; type: binding, calf; conditions: r = [compound]/[polynucleotide] = 0.3, pH 7.0, sodium cacodylate buffer I = 0.05 mol dm^−3; error ±0.5 °C
# Source text: (§8) The thermal stability of helices is usually affected by the non-covalent binding of small molecules to double-stranded nucleic acids. We determined the ΔTm value (the difference between the Tm value of free polynucleotide and a complex with a small molecule) for complexes of selected compounds with ctDNA and an alternating polynucleotide, poly(dAdT)2. […] Because of this, we determined ΔTm value with non-alternating AT-DNA, poly dA-poly dT as well.
# poly dA-poly dT = experiment: Thermal melting experiments; type: binding; conditions: r = 0.3, pH 7.0, sodium cacodylate buffer I = 0.05 mol dm^−3; error ±0.5 °C
# Source text: as §8
# poly(dAdT)2 = experiment: Thermal melting experiments; type: binding; conditions: r = 0.3, pH 7.0, sodium cacodylate buffer I = 0.05 mol dm^−3; error ±0.5 °C
# Source text: as §8
# [16] = Solubility in water (stock solutions)
SMILES,IC50 (A549 [1]) [µM],IC50 (HCC827 [2]) [µM],IC50 (NCI-H358 [3]) [µM],IC50 (A549 [4]) [µM],IC50 (HCC827 [5]) [µM],IC50 (NCI-H358 [6]) [µM],IC50 at 72 h [7] [µM],IC50 (A549 [8]) [µM],IC50 (HCC827 [9]) [µM],IC50 (NCI-H358 [10]) [µM],IC50 (A549 [11]) [µM],IC50 (HCC827 [12]) [µM],IC50 (NCI-H358 [13]) [µM],MIC (E. coli ATCC 25922) [µM],MIC (S. aureus ATCC 29213) [µM],MIC (S. cerevisiae ATCC 7752) [µM],melting point [°C],other results
"N#C/C(=C\c1ccc(-c2ccc([N+](=O)[O-])cc2)o1)c1nc2ccccc2s1 [Compound 19, (E)-2-(Benzothiazol-2-yl)-3-[5-(4-nitrophenyl)furan-2-yl]acrylonitrile]",> 50,> 50,> 50,> 100,> 100,> 100,> 50,> 50,> 50,> 50,> 100,> 100,> 100,> 100,> 100,> 100,240 to 242,–
CC(C)NC(=N)c1ccc2nc(-c3ccc(-c4ccc([N+](=O)[O-])cc4)o3)sc2c1,–,–,–,–,–,–,–,–,–,–,–,–,–,–,–,–,–,ΔTm [14]: 4.8 °C; ΔTm [15]: 5.5 °C
"N#Cc1ccc2[nH]c(-c3ccc(-c4ccc([N+](=O)[O-])cc4)o3)nc2c1 [Compound 10, 5(6)-Cyano-2-[5-(4-nitrophenyl)furan-2-yl]benzimidazole]",> 50,> 50,> 50,> 100,> 100,> 100,> 50,> 50,> 50,> 50,> 100,> 100,> 100,> 100,> 100,> 100,242 to 246,–
"N#C/C(=C\c1ccc(-c2ccc([N+](=O)[O-])cc2)o1)c1nc2ccccc2[nH]1 [Compound 17, (E)-2-(Benzimidazol-2-yl)-3-[5-(4-nitrophenyl)furan-2-yl]acrylonitrile]",> 50,> 50,> 50,> 100,> 100,> 100,> 50,> 50,> 50,> 50,> 100,> 100,> 100,> 100,> 100,> 100,273 to 274,–
"N#Cc1ccc2[nH]c(-c3ccc(-c4ccc(Cl)cc4)o3)nc2c1 [Compound 13, 2-[5-(4-Chlorophenyl)furan-2-yl]-5(6)-cyanobenzimidazole]",> 50,> 50,> 50,> 100,> 100,> 100,> 50,22.7 ± 0.54,> 50,15.7 ± 0.86,> 100,> 100,> 100,> 100,> 100,> 100,242 to 246,–
"N#C/C(=C\c1ccc(-c2ccc(Cl)cc2)o1)c1nc2ccccc2[nH]1 [Compound 20, (E)-2-(Benzimidazol-2-yl)-3-[5-(4-chlorophenyl)furan-2-yl]acrylonitrile]",> 50,43.5 ± 8.17,31.1 ± 4.42,> 100,9.48 ± 1.15,> 100,> 50,43.9 ± 54.3,> 50,14.4 ± 6.46,> 100,0.16 ± 0.11,> 100,> 100,> 100,> 100,292 to 294,–
"Cl.O=[N+]([O-])c1ccc(-c2ccc(-c3nc4ccc(C5=NCCN5)cc4s3)o2)cc1 [Compound 6, 6-(4,5-Dihydro-1H-imidazol-2-yl)-2-[5-(4-nitrophenyl)furan-2-yl]benzothiazole hydrochloride]",2.12 ± 0.21,5.13 ± 0.97,0.85 ± 0.05,4.01 ± 0.95,7.02 ± 3.25,1.73 ± 0.01,3.11 ± 0.26,2.27 ± 0.13,16.7 ± 9.39,1.1 ± 0.001,5.52 ± 0.1,7.63 ± 5,2.36 ± 1.17,> 100,> 100,1.6,287 to 292,ΔTm ctDNA (ctDNA): 3.2 °C; ΔTm Poly dA-poly dT (poly dA-poly dT): 5.6 °C; ΔTm poly (dAdT)2 (poly(dAdT)2): 3.6 °C; ΔTm [14]: 3.6 °C; ΔTm [15]: 5.6 °C; solubility [16]: 1720 µM
"N#Cc1ccc2nc(-c3ccc(-c4ccc(Cl)cc4)o3)sc2c1 [Compound 7, 2-[5-(4-Chlorophenyl)furan-2-yl]-6-cyanobenzothiazole]",> 50,> 50,> 50,> 100,> 100,> 100,> 50,> 50,> 50,> 50,> 100,> 100,> 100,> 100,> 100,> 100,235 to 237,–
